Laboratory results as given in patent US20230123334A1, “AMINO LIPID COMPOUND, PREPARATION METHOD THEREFOR, AND APPLICATION THEREOF” (SHENZHEN SHENXIN BIOTECHNOLOGY CO., LTD., priority 2020, published 2023).

Experiments:
[1] = system: HEK293 cells; assay: Preliminary screening as mRNA vectors, EGFP mRNA transfection of HEK293 cells; assay type: cell-based; conditions: HEK293 cells, 96-well plates, EGFP mRNA 50 ng per well; percentage of GFP fluorescent cells relative to total number of cells (Hoechst)
How it was run: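 HEK293 cells in DMEM plus 10% FBS transfected in 96-well format with 50 ng EGFP mRNA per well; Lipofectamine2000 served as positive control. Read-out is the percentage of GFP-fluorescent cells among total cells, counted by Hoechst nuclear stain.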

[2] = system: HEK293 cells; assay: Preliminary screening as DNA vectors, GFP transfection of HEK293 cells; assay type: cell-based; conditions: HEK293 cells; lipid/DOPE liposome with 75 ng plasmid DNA (psin-EGFP-IRES-Puro); number of cells expressing GFP divided by total number of nuclei (Hoechst)
How it was run: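 HEK293 cells in DMEM/10% FBS transfected with 75 ng EGFP plasmid per well complexed with amino lipid/DOPE liposomes in pH 5.6 sodium acetate. Hoechst nuclear stain added 20-24 h post-transfection, then cells cultured another 20-24 h. Confocal imaging gives GFP-positive cells as % of total nuclei.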

SMILES | Absolute mRNA transfection efficiency in HEK293 cells [1] | Absolute DNA transfection efficiency in HEK293 cells [2]
CCCCCCCCCCCCN(CCCCCCCCCCCC)c1nc(NCCCCCCCCC)nc(NCCN(CC)CC)n1 [N9^2N12D7] | 0.2% | 0.0%
CCCCCCCCCCCCCCSc1nc(NCCCN2CCN(C)CC2)nc(SCCCCCCCC)n1 [Compound S8S14D9] | 13.5% | 16.0%
CCCCCCCCCNc1nc(NCCCCCCCCC)nc(NCCN2CCCCC2)n1 [Compound N9N9D4] | 0.6% | 0.0%
CCCCCCCCCCCCCNc1nc(NCCCCCCCCC)nc(NCC2CCN(C)CC2)n1 [Compound N9N13D10] | 2.8% | 0.3%
CCCCCCCCCCCCCCCCCCSc1nc(NCCCN(C)C)nc(SCCCCCCCCCCCC)n1 [Compound S12S18D6] | 0.1% | 1.0%
CCCCCCCCCCCCCCCNc1nc(NCCCCCC)nc(NCCN2CCOCC2)n1 [Compound N6N15D2] | 0.1% | 0.0%
CCCCCCCCCCCCCCCCCCSc1nc(NCCN(C)C)nc(SCCCCCCCCCCCCCC)n1 [Compound S14S18D1] | 0.0% | 0.0%
CCCCCCCCCCCCCNc1nc(NCCCCCCCCCCCC)nc(NCCN(C)C)n1 [Compound N12N13D1] | 1.6% | 1.2%
CCCCCCCCNc1nc(NCCCCCCCC)nc(NCCCN2CCOCC2)n1 [Compound N8N8D8] | 0.0% | 0.0%
CCCCCCCCCCCCSc1nc(NCCCN2CCN(C)CC2)nc(SCCCCCCCCCC)n1 [Compound S10S12D9] | 53.7% | 28.1%
CCCCCCCCCCCCN(CCCCCCCCCCCC)c1nc(NCCCCCCCC)nc(NCCN(C)C)n1 [N8^2N12D1] | 0.2% | 0.0%
CCCCCCCCNc1nc(NCCCCCCC)nc(NCCN2CCOCC2)n1 [Compound N7N8D2] | 0.3% | 0.0%
CCCCCCCCCCCCCNc1nc(NCCN2CCCCC2)nc(N(CCCCCCCCCCCC)CCCCCCCCCCCC)n1 [N13^2N12D4] | 4.5% | 0.8%
CCCCCCCCNc1nc(NCCCCCCC)nc(NCC2CCN(C)CC2)n1 [Compound N7N8D10] | 0.6% | 0.0%
CCCCCCCCCNc1nc(NCCCCCC)nc(NCCN2CCCCC2)n1 [Compound N6N9D4] | 0.3% | 0.0%
CCCCCCCCCCCNc1nc(NCCCCCC)nc(NCCN2CCCCC2)n1 [Compound N6N11D4] | 0.0% | 0.0%
CCCCCCCNc1nc(NCCCCCC)nc(NCCN(CC)CC)n1 [Compound N6N7D7] | 0.0% | 0.0%
CCCCCCCCNc1nc(NCCCCCCC)nc(NCCCN2CCN(C)CC2)n1 [Compound N7N8D9] | 0.2% | 0.7%
CCCCCCCCCCCCCCCSc1nc(NCCCN2CCN(C)CC2)nc(SCCCCCCCCCCCC)n1 [Compound S12S15D9] | 0.9% | 2.0%
CCCCCCCCCCCCNc1nc(NCCCCCCC)nc(NCCCN2CCOCC2)n1 [Compound N7N12D8] | 0.0% | 0.1%
CCCCCCCCCCCCCCCCNc1nc(NCCCN(C)C)nc(N(CCCCCCCCCCCC)CCCCCCCCCCCC)n1 [N16^2N12D6] | 0.0% | 0.5%
CCCCCCCCCCCCCCCCCCNc1nc(NCCCCCCCCCCCCCCC)nc(NCCN(C)C)n1 [Compound N15N18D1] | 0.0% | 0.0%
CCCCCCCCCCCCCCCCNc1nc(NCCCCCCCCC)nc(NCC2CCN(C)CC2)n1 [Compound N9N16D10] | 1.2% | 4.8%
CCCCCCCCCCCCCCCCCCSc1nc(NCCN2CCCCC2)nc(SCCCCCCCCCCCCCC)n1 [Compound S14S18D4] | 0.8% | 2.5%

SMILES | Absolute mRNA transfection efficiency in HEK293 cells [1] | Absolute DNA transfection efficiency in HEK293 cells [2]
CCCCCCCCCCCSc1nc(NCCN2CCCCC2)nc(SCCCCCCCCCC)n1 [Compound S10S11D4] | 0.0% | 16.7%
CCCCCCCCCCCCNc1nc(NCCCCCCCCCCC)nc(NCCCN(C)C)n1 [Compound N11N12D6] | 8.1% | 0.5%
CCCCCCCCNc1nc(NCCCCCC)nc(NCCCN(C)C)n1 [Compound N6N8D6] | 0.0% | 0.1%
CCCCCCCCCCCCCCCSc1nc(NCCN2CCOCC2)nc(SCCCCCCCCCCCC)n1 [Compound S12S15D2] | 0.0% | 0.5%
CCCCCCCCCCCCCCCSc1nc(NCCN2CCOCC2)nc(SCCCCCCCC)n1 [Compound S8S15D2] | 0.0% | 10.8%
CCCCCCCCCCCCNc1nc(NCCCCCC)nc(NCC2CCN(C)CC2)n1 [Compound N6N12D10] | 0.0% | 0.2%
CCCCCCCCCCCCCCSc1nc(NCCCN2CCN(C)CC2)nc(SCCCCCCCCCCCC)n1 [Compound S12S14D9] | 2.5% | 0.8%
CCCCCCCCCCCCNc1nc(NCCCCCCC)nc(NCCN(C)C)n1 [Compound N7N12D1] | 0.1% | 0.2%
CCCCCCCCCCCCNc1nc(NCCCCCCCCCCCC)nc(NCCCN(C)C)n1 [Compound N12N12D6] | 0.8% | 0.3%
CCCCCCCCCCCCCCCCNc1nc(NCCCCCCCCCCCCC)nc(NCCCN2CCOCC2)n1 [Compound N13N16D8] | 3.3% | 0.0%
CCCCCCCCCCCCCCCCCCNc1nc(NCCCN(C)C)nc(N(CCCCCCCCCCCC)CCCCCCCCCCCC)n1 [N18^2N12D6] | 2.1% | 1.3%
CCCCCCCCCCCSc1nc(NCC2CCN(C)CC2)nc(SCCCCCCCCCC)n1 [Compound S10S11D10] | 93.7% | 13.3%
CCCCCCCCCNc1nc(NCCCCCC)nc(NCCN(C)C)n1 [Compound N6N9D1] | 0.0% | 0.0%
CCCCCCCCCCCCCCCCSc1nc(NCCN2CCCCC2)nc(SCCCCCCCCCCCCCCCC)n1 [Compound S16S16D4] | 2.2% | 1.2%
CCCCCCCCCCCCCNc1nc(NCCCCCCCC)nc(NCCN2CCN(C)CC2)n1 [Compound N8N13D5] | 0.0% | 0.0%
CCCCCCCCCSc1nc(NCCN(CC)CC)nc(SCCCCCCCCC)n1 [Compound S9S9D7] | 3.6% | 32.6%
CCCCCCCCCCCCCCCSc1nc(NCCN2CCOCC2)nc(SCCCCCCCCCCCCCC)n1 [Compound S14S15D2] | 0.0% | 0.1%
CCCCCCCCCCCCCCCCCCNc1nc(NCCCCCCCCCCCC)nc(NCCN(C)C)n1 [Compound N12N18D1] | 9.4% | 1.4%
CCCCCCCCCCCCCCSc1nc(NCCN(C)C)nc(SCCCCCCCCCCCCCC)n1 [Compound S14S14D1] | 0.0% | 0.1%
CCCCCCCCCCCCCCCCCCNc1nc(NCCCCCCCCCCCCCCCC)nc(NCCN2CCCC2)n1 [Compound N16N18D3] | 20.8% | 0.4%
CCCCCCCCCCCCCCCCSc1nc(NCC2CCN(C)CC2)nc(SCCCCCCCCCCCC)n1 [Compound S12S16D10] | 13.2% | 7.3%
CCCCCCCCCCCCCCCNc1nc(NCCCCCCCCCCCCCCC)nc(NCCN2CCCC2)n1 [Compound N15N15D3] | 3.8% | 1.8%
CCCCCCCCCCCCCCCCCCNc1nc(NCCCCCCCCCCCCCCCCCC)nc(NCCN(C)C)n1 [Compound N18N18D1] | 2.2% | 1.9%
CCCCCCCCCSc1nc(NCCN2CCCC2)nc(SCCCCCCCCC)n1 [Compound S9S9D3] | 4.5% | 11.9%
